Assay results published in US20220290184A1, “DONOR PIGS FOR XENOTRANSPLANTATION” (NZENO LIMITED, priority 2019, published 2022).
“Also recorded” adds a separate entry of the source. Marks after values point to notes of the source that are not given here. Where a SMILES comes first, the peptide text is derived from it. The star is where a group is joined. Cbz = O=C(OCc1ccccc1)*

How the values were obtained:
Format in all cases: cell-based, pig
CMAH gene = test: CRISPR activity assay with TIDE analysis, CMAH target locus
Method: Cell culture and transfection was performed as described in Example 4 section 4.1.2.
The CRISPR activity assay was performed as described in Example 4 section 4.1.3 using the CMAH-specific CRISPRs (68rev, 165fw) and CMAH primers (CMAHF-[…] (SEQ ID NO: 48) and CMAHR-[…]3 (SEQ ID NO: 49)).

porcine SCNT embryos = test: Zona-free somatic cell nuclear transfer (SCNT) embryo development in vitro
Method: Ovaries were sourced from pre-pubertal gilts slaughtered at the Ruakura abattoir (AgResearch, New Zealand). Cumulus-oocyte complexes (COCs) were recovered by follicular aspiration and matured in vitro (IVM) for 44 h. Two IVM systems to mature porcine oocytes were compared: biphasic (ESOF and LSOF) IVM1/2 medium containing 1 mM dibutyryl cyclic adenosine monophosphate for the first 20-24 h (Bagg et al., 2006; Somfai and Hirao, 2011) and FLI medium supplemented with FGF2, LIF and IGF1 for the entire IVM period (Yuan et al., 2017).
COCs were denuded by vortexing with 0.1% hyaluronidase (Sigma) at 2000 rpm for about 60-90 sec. Oocytes were washed twice in HEPES-buffered TCM199 medium (H199)+10% FCS. Denuded oocytes were incubated for 10 min with 0.2M sucrose in H199+10% FCS. Oocytes that maintained a regular, round shape (but smaller diameter) along with a first polar body (1PB) were selected for use.
For zona-free SCNT, pronase was used to remove the zona pellucida. Oocytes were washed thoroughly before staining DNA with 5 μg/mL H33342 plus 7.5 μg/mL cytochalasin B (all Sigma) for 5 min. A 24 μm outer diameter blunt-ended pipette was used for UV-assisted enucleation of metaphase II stage oocytes at 35° C.
Donor cells (e.g. NZK1 kidney fibroblasts) were trypsinised to a single cell suspension after 5-7 days in medium with 0.5% FCS. Single cells were adhered to each enucleated cytoplast with the aid of 20 μg/mL phytohemagglutinin in H199+3 mg/mL BSA. […] Following fusion, reconstructed embryos were held in embryo culture medium without Ca+10% FCS+5 μg/mL cytochalasin B at 38.5° C. in 5% CO2 in air for 2-4 h before activation.
To maintain high levels of maturation promoting factor-cyclin B complex in oocytes aiding nuclear reprogramming, some experiments compared the addition of 5 μM of the proteasome inhibitor MG132 (Sigma). This was added to media formulations from the time of sucrose selection of oocytes until activation of NT reconstructed embryos (Le Bourhis et al., 2010).
Activation of reconstructed NT embryos was initiated with three direct current pulses of 1.0-1.5 kV/cm for 80 μs each, in buffer containing 0.1 mM calcium, ˜50-52 h after the start of IVM.
Within 5 min of electrical stimulation, reconstructed embryos were transferred to culture medium (e.g. ESOF) supplemented with 2 mM 6-dimethylaminopurine+5 μg/mL cytochalasin B and cultured individually in 5 μL drops for 3 h at 38.5° C. In 5% CO2. Afterwards, embryos were washed thoroughly in HEPES SOF before in vitro culture for 6-7 days. […] Embryo development was assessed on Day 6 or 7 and the numbers of nuclei in resulting blastocysts determined in selected experiments.

[1] = test system: parthenogenetically activated porcine oocytes; test: Parthenogenetic oocyte activation (PG) embryo development in vitro; conditions: PG embryos; 5 μM MG132 from oocyte selection until activation
[2] = SCNT embryos, 5 μM MG132 from oocyte selection until activation

For “68rev: guide RNA targeting exon 3 of CMAH, TAAGAATAAGAGCCGCCTGA (SEQ ID NO: 46) (listed as DNA, chemistry not given here)”, the “CRISPR activity compared to the second CMAH CRISPR 165fw” value (CMAH gene) was “higher activity”.
For `CC(C)C[C@@H](C=O)NC(=O)[C@H](CC(C)C)NC(=O)[C@H](CC(C)C)NC(=O)OCc1ccccc1` [MG132] (Cbz-Leu-Leu-Leu-aldehyde), the “Benefit in terms of in vitro development following SCNT or PG” value (porcine SCNT embryos; 5 μM MG132 between oocyte selection and activation, preliminary experiment) was “unable to show any benefit; also recorded: showed no benefit”, the “Blastocyst Development Day 7” value (porcine SCNT embryos; [2]) was 11%^b and the Cleavage (porcine SCNT embryos; [2]) was 99%. The Fusion (porcine SCNT embryos; [2]) was 49%, the “Blastocyst Development Day 7” value [1] was 23% and the Cleavage [1] was 100%.
